Records with an inconclusive call do not appear. Active and inactive are the calls of the source.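 Rule for the calls: active = Green signal of the normal strain falls at least twice as much as red signal of the resistant mutant, with overall culture growth loss under a set limit; inconclusive = no clear call, values can overlap the other calls; inactive = the rest.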

From PubChem BioAssay AID977622 (Broad Institute, 2014) come the findings set out here.

In the assay the test system is E. coli WT ribosome GFP fluorescence, mixed culture, 24 h. Description: growth inhibition of wild-type GFP E. coli, dose response, h38 mutant RFP, cherry-pick (AID 977622).
Setting [1] is: E. coli mixed culture, 24 h, measured here: total growth OD600.

Broadly, the AC50 is the midpoint of the concentration-response curve, whichever way the signal moves. As for `O=C(O)c1ccc(Oc2ccc([N+](=O)[O-])cc2)c([N+](=O)[O-])c1`, the AC50 was > 100 µM (inactive). Regarding `Cc1ccc(S(=O)(=O)NCc2c(-c3ccccc3)noc2C)cc1`, the AC50 was > 100 µM (inactive). For `O=[N+]([O-])c1ccccc1CN1CCN(S(=O)(=O)c2ccccc2)CC1`, the AC50 is > 100 µM (inactive).

For `O=S(=O)(c1ccccc1)N1C[C@H]2[C@@H](c3ccccc31)[C@@H](CO)N2Cc1ccccc1`, the AC50 is > 100 µM (inactive). Consider `O=C1NC(CCc2ccccc2)C(=O)N1Cc1cccc2ccccc12` (stereo unspecified), for which the AC50 was > 100 µM (inactive). Further, the AC50 under setting [1] was found to be 51.5 µM. Regarding `CCOC(=O)c1c(CS(=O)(=O)c2ccccc2)n(C)c2cc(Br)c(O)cc12`, the AC50 is > 100 µM (inactive). Turning to `O=C(O)c1cccnc1SCc1ccccc1Cl`, the AC50 is > 100 µM (inactive). The compound further registered a concentration at half-maximal activity (AC50) under setting [1] of 42.8 µM. Regarding `COc1cccc(-n2nnnc2SCC(=O)NCc2ccc3c(c2)OCO3)c1`, the AC50 was > 100 µM (inactive). For `Cc1ccc(C(=O)Nc2ccc(C)c(S(=O)(=O)Nc3ccccc3Cl)c2)s1`, the AC50 is > 100 µM (inactive). For the same compound, under setting [1], the AC50 worked out at 43.1 µM. Under setting [1], `Cc1cccc(N2CCN(Cc3nc(-c4ccc(F)cc4F)oc3C)CC2)n1` came in with an AC50 of over 100 µM.

As to `COC(=O)c1c(NC(=O)c2ccccc2C(=O)O)sc2c1CCC2`, the AC50 was > 100 µM (inactive). With `Cc1c(Cc2ccccc2)sc(NC(=O)Cc2ccccc2)c1C(N)=O`, the AC50 was > 100 µM (inactive). The compound `CCc1ccc(CN2CCCC(CNS(=O)(=O)c3ccc(OC)cc3)C2)cc1` (stereo unspecified) yielded an AC50 under setting [1] of over 100 µM. Regarding `COc1ccc(Cl)cc1C(=O)OCC(=O)c1ccc[nH]1`, the AC50 is > 100 µM (inactive). For `COC(=O)CN1C(=S)N(c2ccc(Cl)cc2)C(=O)C1CC(=O)Nc1ccc(F)cc1` (stereo unspecified), the AC50 is > 100 µM (inactive). `O=C(CCc1nc2ccccc2s1)OCC(=O)c1ccc[nH]1`: the AC50 is > 100 µM (inactive). Regarding `CCCn1c(=O)c2ccccc2n2c(SCCOc3ccc(OC)cc3)nnc12`, the AC50 was > 100 µM (inactive). Consider `CNC(=O)c1ccsc1NC(=O)c1ccc2c(c1)CCCC2`, for which the AC50 was > 100 µM (inactive). Further, the AC50 under setting [1] is over 100 µM. Consider `O=C(NCc1cccnc1)C1CCN(S(=O)(=O)c2cc([N+](=O)[O-])ccc2Cl)CC1`, for which the AC50 is > 100 µM (inactive). `O=c1[nH]c(C2CCN(S(=O)(=O)c3ccc4c(c3)OCCO4)CC2)nc2c1nnn2Cc1ccccc1F`: the AC50 is > 100 µM (inactive). As to `CN(C)C(=O)C1C2NC(=S)N(c3cccc(Cl)c3)C1(C)Oc1ccc(Cl)cc12` (stereo unspecified), the AC50 was > 100 µM (inactive). Also, the AC50 under setting [1] is over 100 µM. As for `CCSc1nc2ccccc2c(=O)n1Cc1ccc(F)cc1`, the AC50 is > 100 µM (inactive). Consider `CSc1ccccc1NC(=O)c1ccccc1N(Cc1ccccc1)S(C)(=O)=O`, for which the AC50 is > 100 µM (inactive).

For `Fc1ccc(Br)cc1SCCc1ccncc1`, under setting [1], the AC50 was over 100 µM. In the case of `Cc1ccc(N(CC(O)Cn2nc(C)cc2C)S(=O)(=O)c2ccc3ccccc3c2)cc1` (stereo unspecified), the AC50 was > 100 µM (inactive). Moreover, the AC50 under setting [1] worked out at 43.1 µM. As for `COc1cc(C(=O)NCCc2c[nH]c3ccccc23)ccc1OCc1c(C)noc1C`, the AC50 is > 100 µM (inactive). The compound further registered an AC50 under setting [1] of over 100 µM. Take `CC(=O)Nc1cccc(OCCCOc2cccc([N+](=O)[O-])c2)c1`: under setting [1], the AC50 was over 100 µM. Consider `COc1ccc(C#Cc2ccc([C@@H]3[C@@H](CO)N4CCCCN(C(=O)Nc5ccc(F)cc5)C[C@H]34)cc2)cc1`, for which, under setting [1], the AC50 stood at 50.6 µM. Consider `Cc1ccccc1S(=O)(=O)NC(=O)C1(C)CCN1C(=O)C1(c2ccc(Cl)cc2)CC1` (stereo unspecified), for which the AC50 was > 100 µM (inactive). For `Cc1ccc(S(=O)(=O)N2CC[C@H]3[C@H](CO)Nc4ccc(Br)cc4[C@H]32)cc1`, the AC50 is > 100 µM (inactive). The AC50 under setting [1] worked out at 29.1 µM. In the same order, the values of `CCOc1ccc(OCCn2c(=S)[nH]c3c(N)ncnc32)cc1` are > 100 µM (inactive) and 39 µM.

In turn, `CC(C)(CC(=O)O)CC(=O)NCc1c(Cl)cccc1Sc1ccc(Cl)cc1` displayed an AC50 under setting [1] of over 100 µM.

For the compound `COC(=O)c1cc2c(c3c4cc(F)ccc4n(S(=O)(=O)c4cccc(C)c4)c13)C(=O)N(Cc1ccco1)C2`, the AC50 under setting [1] was over 100 µM. Turning to `CC(=O)Nc1cccc(-c2ccnc3c2CC(C(=O)Nc2ccc4c(c2)OCO4)O3)c1` (stereo unspecified), the AC50 is > 100 µM (inactive). `COc1ccc(C(=O)N(c2ccccc2)c2nccc3ccccc23)cc1OC`: the AC50 was > 100 µM (inactive).

For `COc1ccc(-c2csc(NC(=O)c3ccoc3C)n2)cc1`, the AC50 was > 100 µM (inactive). In addition, the AC50 under setting [1] is over 100 µM. On to `C[C@@H]1CN([C@H](C)CO)C(=O)c2cccc(NC(=O)c3ccncc3)c2O[C@@H]1CN(C)S(=O)(=O)c1ccc(Cl)cc1`, for which the AC50 is > 100 µM (inactive).

Turning to `C[C@@H]1CN([C@H](C)CO)C(=O)CCCn2nncc2CO[C@@H]1CN(C)C(=O)Nc1ccc(C(F)(F)F)cc1`, the AC50 is > 100 µM (inactive). For the compound `COc1ccc(CC(=O)Nc2nc(-c3cc(OC)ccc3OC)cs2)cc1`, the AC50 was > 100 µM (inactive). This compound had an AC50 under setting [1] of 8.91 µM. Turning to `Cc1nc(C)c(-c2ccn(S(=O)(=O)c3ccc(Cl)cc3)n2)o1`, the AC50 was > 100 µM (inactive). Same read-out and setting: next, `Cc1nn(-c2ccc(N3CCCCC3)nn2)c(C)c1CCC(=O)Nc1ccc(F)cc1`: > 100 µM (inactive); `Cc1ccc(-c2cc(-c3ccc(C)cc3)[n+](-c3ccc(C(=O)[O-])cc3)c(-c3ccc(C)cc3)c2)cc1`: > 100 µM (inactive); `Nc1ccccc1Nc1ccc([N+](=O)[O-])cc1[N+](=O)[O-]`: > 100 µM (inactive). Compound `CCN(CC)c1nc(Oc2ccc(C(=O)OC)cc2)nc(N2CCOCC2)n1` registered an AC50 under setting [1] of over 100 µM. As to `O=C(NCCc1ccccc1)c1cccc(NC(=O)c2ccccc2)c1`, the AC50 was > 100 µM (inactive). As to `CN(c1ccccc1)S(=O)(=O)c1cccc(NC(=O)CCN2C(=O)C3CCCCC3C2=O)c1` (stereo unspecified), the AC50 was > 100 µM (inactive). Under setting [1], this compound came in with an AC50 of over 100 µM. With `Cc1ccc2oc(C(=O)N(CCO)Cc3ccccc3)c(C)c2c1`, the AC50 is > 100 µM (inactive). This compound returned an AC50 under setting [1] of 37.1 µM. Consider `CC(=O)Nc1ccc2nc3ccccc3nc2c1`, for which the AC50 was > 100 µM (inactive). The compound also showed an AC50 under setting [1] of over 100 µM. As for `CCN(c1ccccc1)S(=O)(=O)c1ccc(Cl)c(NC(=O)CSc2n[nH]c(N)n2)c1`, the AC50 is > 100 µM (inactive). Further, under setting [1], the AC50 is over 100 µM. For `CC(=O)Nc1cccc2c1Cc1cc([N+](=O)[O-])ccc1-2`, the AC50 was > 100 µM (inactive). In the case of `O=C(Nc1ccn(Cc2ccc(Cl)cc2)n1)c1ccccc1`, under setting [1], the AC50 is over 100 µM. Regarding `O=C(O)c1ccc2c(c1)N(Cc1ccc(F)cc1)C(=O)c1ccccc1S2`, the AC50 was > 100 µM (inactive). With `CCc1nn2cc(C(=O)c3cc(Cl)ccc3O)cnc2c1-c1ccc(F)cc1`, the AC50 was > 100 µM (inactive). Also, under setting [1], the AC50 is over 100 µM. For `Cc1nc(-c2ccc([N+](=O)[O-])cc2)c(-c2ccccc2)o1`, the AC50 is > 100 µM (inactive). The compound further displayed a concentration at half-maximal activity (AC50) under setting [1] of over 100 µM.

With `CN1c2ccc(C#Cc3cccnc3)cc2[C@@H]2[C@@H](CCN2C(=O)c2cccc(F)c2)[C@H]1CO`, the AC50 was > 100 µM (inactive). On the same count and under the same terms, next, `O=C(C[C@@H]1CC[C@H]2[C@@H](COC[C@H](O)CN2C(=O)Nc2cc(Cl)cc(Cl)c2)O1)N1CCOCC1`: > 100 µM (inactive); `Fc1ccc(-c2nnc(-c3ccc4ccccc4c3)o2)cc1`: > 100 µM (inactive).

`CC(C)(C)C1CCC(OCC(O)CN2CCN(c3ccccn3)CC2)CC1` (stereo unspecified): the AC50 was > 100 µM (inactive). The compound further showed an AC50 under setting [1] of 44.7 µM.

Turning to `CCOC(=O)c1cccc(OS(=O)(=O)Cc2ccccc2)c1`, the AC50 was > 100 µM (inactive). The same compound registered an AC50 under setting [1] of over 100 µM. For `CCCCNC(=O)C[C@@H]1C[C@@]2(C(=O)OC)CCCCC=C2N(Cc2ccccc2)C1=O`, the AC50 was > 100 µM (inactive). For the same compound, the AC50 under setting [1] was over 100 µM. Regarding `CN1C(=O)c2cc(NC(=O)c3cccc(F)c3)ccc2OC[C@H]2O[C@@H](CC(=O)N3CCc4ccccc4C3)CC[C@@H]21`, the AC50 was > 100 µM (inactive). `O=C(NCc1ccc(-c2nc3ccccc3s2)cc1)c1ccco1`: the AC50 is > 100 µM (inactive). The compound also yielded an AC50 under setting [1] of 3 µM. For the compound `CCc1ccc2[nH]c(C(=O)Nc3ccc4c(c3)OCO4)cc2c1`, the AC50 is > 100 µM (inactive). Take `O=C(Nc1cccc(S(=O)(=O)N2CCCCC2)c1)c1ccc(Cl)nc1`: the AC50 is > 100 µM (inactive). Turning to `COc1ccccc1Cn1c(=S)[nH]c2ccccc2c1=O`, the AC50 was > 100 µM (inactive). Also, under setting [1], the AC50 was 42.1 µM. With `Cc1ccsc1C(=O)OCC(=O)N1CCc2ccccc2C1`, the AC50 was > 100 µM (inactive). For the same compound, the AC50 under setting [1] was over 100 µM. As for `O=C(O)c1cc(-c2cccs2)nn1-c1cccc(Cl)c1`, the AC50 is > 100 µM (inactive). Still for that read-out and setting: next, `COC(=O)c1ccc(CN2CCCC(CO)(Cc3ccccc3F)C2)cc1` (stereo unspecified): > 100 µM (inactive). In the case of `CCOc1ccc(-c2nc(-c3cccs3)c(CC(=O)O)s2)cc1OC`, under setting [1], the AC50 was over 100 µM. On to `Cc1ccc(CNC(=O)c2ccc(Br)o2)cc1`, for which the AC50 is > 100 µM (inactive). As for `Cc1onc(-c2ccccc2Cl)c1C(=O)OCC(=O)c1ccccc1`, under setting [1], the concentration at half-maximal activity (AC50) is over 100 µM.

As for `CN(C)C(CNS(=O)(=O)c1cc([N+](=O)[O-])ccc1Cl)c1ccco1` (stereo unspecified), the AC50 is > 100 µM (inactive). Besides, the AC50 under setting [1] is over 100 µM. For the compound `Cc1cc(NC(=O)c2cccc(Oc3ccccc3)c2)n[nH]1`, the AC50 is > 100 µM (inactive). For the same compound, under setting [1], the concentration at half-maximal activity (AC50) worked out at 40.6 µM.

For the compound `COCCN(C(=O)c1ccccc1F)c1nnc(-c2ccc(OC)cc2)s1`, the AC50 is > 100 µM (inactive). Moreover, the half-maximal activity concentration (AC50) under setting [1] was over 100 µM. `O=C(NCc1ccccc1)c1ccc(-c2cn[nH]c2)c2ccoc12` came in with an AC50 under setting [1] of over 100 µM.
